Results published in patent US5512431A, “Methods of screening for nucleoside analogs that are incorporated by HIV reverse transcriptase and cause incorrect base pairing” (priority 1994, dated 1996).

Key:
[1] = system: lacZ gene; assay: Forward mutation assay in lacZ of gapped M13mp2 DNA (reduced α-complementation) after transfection into E. coli; format: cell-based; conditions: for Transfection efficiency, plaques per ng: Table I, gap filled by pol-I1f; for Transfection efficiency, plaques per ng / Transfection efficiency (yield of transfectants) / Mutation frequency: with HIV-RT; for Mutation frequency: number of mutants in parentheses in Table I
Text: The column fractions are used in place of dCTP for DNA synthesis reactions. The DNA template is a double-stranded M13mp2 molecule with a 361-nt single-stranded gap spanning part of the lacZ gene for bacterial β-galactosidase. The uracil-containing strand is rapidly hydrolyzed upon transfection in E. coli, resulting in a 10^4 -fold preferential expression of the strand lacking uracil and preventing the repair of altered cytidines incorporated into the strand lacking uracil. DNA synthesis is catalyzed by HIV RT in the presence of 200 μM dATP, dGTP and TTP and 1 μM of each fraction from the reverse-phase column. Partially double-stranded DNA products are purified, and gap filling synthesis is completed using the Klenow fragment of E. coli DNA polymerase I. Incorporation of oxidized cytosine derivatives is quantified by scintillation counting and the toxicity of the fractions is assessed by comparing the transfection efficiency of DNA synthesized by using fractions containing the altered nucleotides to that of DNA synthesized with dCTP passed through the same column. The mutagenicity of each fraction is measured by scoring forward mutations in the lacZ gene for β-galactosidase (Kunkel, Proc. Natl. Acad Sci. USA 81:1494-1498, 1984).
Mutations produced by the incorporation of oxidized derivatives of dCTP into gapped DNA are identified by reduced α-complementation of β-galactosidase activity. Logarithmic-phase MC1061 hsdR, mcrR, araD, (139.increment.^- araABC^- leu) 7679.increment.lacX74, galU, galK, rspL, thi^- ! is prepared for electroporation by washing the cells four times with sterile H2 O. Cells are then pelleted and resuspended in a volume of H2 O equal to that of the packed cells. Fifty nanograms of the filled-gap DNA product is mixed with 300 μl of cells and subjected to electroporation using a Bio-Rad Gene Pulser ([…], 400 W, 2.0 KV, and time constants between 6.0 and 7.5). Samples are placed on ice and mixed with 1 ml of LB medium. Aliquots (10-40 μl) of the transfection mixtures are added to 3 ml of molten top agar (42° C.) consisting of 0.9% NaCl, 0.8% Bacto Agar, 0.08% 5-bromo-4-chloro-3-indolylβ-D-galactoside dissolved in dimethlyformamide, and 0.2 ml of CSH50 .increment.(proBlac)/F'+raD36, thi^-, ara^-, proAB, lacI^α Z^- .increment.m15! cells in logarithmic phase, and layered onto plates containing 30 ml of solidified M9 medium supplemented with 1.5% Bacto Agar and 15 mM isopropyl-β-D-thiogalactoside (IPTG). Phenotypes are confirmed by mixing mutant phage with an equal quantity of wild type M13mp2 phage and replating. Phage DNA is isolated (Kunkel, Proc. Natl. Sci. USA 81:1494-1498, 1984) and sequenced by the method of Sanger etal. (J. Mol. Biol. 125:225-246, 1978) using a 15-mer oligodeoxyribonucleotide primer complementary to the +179 to +194 segment of the lacZα coding sequence.
Mutagenic potential of γ is assessed by using a forward mutation assay. To reduce the frequency of mutations arising from the incorporation of noncomplementary nucleotides by HIV-RT, this incubation is performed for only 2 min. Under these conditions, HIV-RT incorporates approximately five molecules of γ or nine molecules of undamaged dCTP per molecule of template. The gapped DNA is then completely filled by pol-I1f (the large fragment of E. coli DNA polymerase I) using the four undamaged nucleotides as substrates. The transfection efficiencies and mutation frequencies are given in Table I. In reactions without HIV-RT, 1040 transfectants are obtained per ng DNA, whereas with HIV-RT and undamaged dCTP ("purified" by reverse-phase and strong-anion exchange chromatography) the yield is 165 transfectants per ng of DNA. Substitution of γ for dCTP further reduced transfection efficiency, 73 transfectants per ng of DNA. In the absence of HIV-RT the mutation frequency is 4.6×10^-4 (line 1, Table I). […]

[2] = target: T1, HIV-RT (HIV-1 M:B_HXB2R, UniProt P04585); assay: Incorporation of oxidized dCTP derivatives into gapped M13mp2 DNA by HIV-RT; format: biochemical; conditions: for Molecules incorporated by HIV-RT per molecule of template: 2 min incubation
T1 construct: mature RT cut from Gag-Pol polyprotein (Pr160Gag-Pol)
Protocol: The purification of oxidized derivatives of dCTP is monitored by measuring incorporation into gapped DNA. The gapped DNA consists of a single-stranded circular M13mp2 DNA containing uracil residues annealed to a linear incomplete complementary strand lacking uracil so as to create a 361-nt gap spanning part of the lacZ gene (prepared as described in Feig and Loeb, Biochemistry 32:4466-73, 1993). The reaction mixture (0.02 ml) contains: 200 ng of gapped DNA, 60 mM Tris-HCl (pH 8.0), 10 mM KCl, 7 mM MgCl2, 1 mM dithiothreitol, 0.5 mM EDTA, 200 μM (each) dATP, dGTP and TTP, 1 μM α-^32 P!dCTP or modified dCTP (692 cpm/pmol), and 1.25 units of recombinant HIV-RT (Preston et al., Science 242:1168-1171, 1988) (1 unit is the amount of enzyme required to catalyze the incorporation of 1 nmol of dNTP into DNA in 1 h at 37° C.). The nucleotide bias in this reaction drives the incorporation of modified cytosine only at sites opposite guanosines in the lacZα gene. Samples are extracted once each with phenol and chloroform/isoamyl alcohol, 24:1, followed by ethanol precipitation in the presence of 400 mM NaCl and 10 μg of glycogen (as a coprecipitant). […]
The column fractions are used in place of dCTP for DNA synthesis reactions. […] Partially double-stranded DNA products are purified, and gap filling synthesis is completed using the Klenow fragment of E. coli DNA polymerase I. Incorporation of oxidized cytosine derivatives is quantified by scintillation counting and the toxicity of the fractions is assessed by comparing the transfection efficiency of DNA synthesized by using fractions containing the altered nucleotides to that of DNA synthesized with dCTP passed through the same column. The mutagenicity of each fraction is measured by scoring forward mutations in the lacZ gene for β-galactosidase (Kunkel, Proc. Natl. Acad Sci. USA 81:1494-1498, 1984).

[3] = system: mammalian DNA polymerase-α; assay: Incorporation by mammalian DNA polymerase-α; format: biochemical
Protocol: (§1) Five different mammalian DNA polymerases have been identified, purified and characterized. These are designated as DNA polymerases α, β, γ, δ, ε based on their amino acid sequences, intracellular localization and presumed role in cellular DNA metabolism (Fry and Loeb, CRC Press, 1986). The ability of a human DNA polymerase to incorporate a deoxynucleoside triphosphates analogs is determined using a DNA template that corresponds to the sequence of the RNA template used to analyze incorporation by HIV RT. A direct comparison is made on the incorporation of nucleoside analogs in the triphosphate form using a human DNA polymerase with that of HIV RT.

[4] = system: mammalian DNA polymerase-β; assay: Incorporation by mammalian DNA polymerase-β; format: biochemical
Protocol: as §1

SMILES: Nc1ccn([C@H]2C[C@H](O)[C@@H](COP(=O)(O)OP(=O)(O)OP(=O)(O)O)O2)c(=O)n1 [dCTP, reference compound]
- Transfection efficiency, plaques per ng [1]: 165 plaques per ng
- Increase of mutation frequency by reaction with HIV-RT and dCTP ([1]; versus absence of HIV-RT): 2.4 fold
- Transfection efficiency (yield of transfectants) [1]: 165 transfectants per ng of DNA
- Mutation frequency [1]: 11 × 10^-4
- Molecules incorporated by HIV-RT per molecule of template [2]: nine

SMILES: Nc1nc(=O)n([C@H]2C[C@H](O)[C@@H](COP(=O)(O)OP(=O)(O)OP(=O)(O)O)O2)cc1O [γ, 5-hydroxy-2'-deoxycytidine 5'-triphosphate]
- Incorporation by mammalian DNA polymerase-α [3]: Neither species is incorporated appreciably
- Mutations that were C→T transitions ([1]; 173 mutations, 92 mutants sequenced): 95.6%
- Observed substitutions that occur at cytosines ([1]; 178 of 181 substitutions, 92 mutants sequenced): 98.3%
- Transfection efficiency, plaques per ng [1]: 73 plaques per ng
- Increase of mutation frequency ([1]; average of five molecules of γ per template DNA, versus reaction with dCTP): 109 fold
- Transfection efficiency (yield of transfectants) [1]: 73 transfectants per ng of DNA
- Mutation frequency [1]: 1200×10^-4
- Incorporation by mammalian DNA polymerase-β relative to dCTP [4]: 18%
- Molecules incorporated by HIV-RT per molecule of template [2]: approximately five
- Efficiency of incorporation into DNA by HIV-RT, % of that for dCTP ([2]; relative to dCTP, gapped DNA): about 56%
